Common to all, as to experiment: Cell proliferation assay (Alamar Blue)
Common to all, as to type: cell-based
(In general: Alamar Blue is a resazurin reagent that responds to reducing activity.)

Assay [1] has as its system JHH7. The note with it: 144 h; JHH7 liver cancer cell line; 6 days. Put shortly: (§1)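 The compounds were tested over nine concentrations diluted 3.16-fold from a top dose of 30 or 100 μM, added 4 h after seeding log-phase cells at 500–1×10^4 per well. Plates were incubated for 6 days, then AlamarBlue fluorescence was read and IC50 values obtained by nonlinear regression.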

The test system of assay [2] is 22RV1. The note with it: Homo sapiens, 144 h; 22RV1 tumor cell line; 6 days. Put shortly: as §1
Assay [3] deals with K562. As to conditions: Homo sapiens, 144 h; K562 tumor cell line; 6 days. In outline: as §1
In assay [4] the test system is NCl-H661. The note with it: 144 h; NCl-H661 tumor cell line; 6 days. Put shortly: as §1
Assay [5] deals with JHH4. The note with it: JHH-4, 144 h; JHH4 liver cancer cell line; 6 days. In outline:
as §1

The test system of assay [6] is NCl-H2170. The note with it: 144 h; NCl-H2170 tumor cell line; 6 days. In outline:
as §1

In assay [7] the test system is JHH6. As to conditions: 144 h; JHH6 liver cancer cell line; 6 days. Put shortly: as §1
Assay [8] has as its system SNU423. As to conditions: Homo sapiens, SNU-423, 144 h; SNU423 liver cancer cell line; 6 days. Put shortly: as §1
Assay [9] has as its system NCl-H716. As to conditions: 144 h; NCl-H716 tumor cell line; 6 days. In outline:
as §1

For assay [10], the system named is MFM-223. As to conditions: Homo sapiens, 144 h; MFM-223 tumor cell line; 6 days. In outline:
as §1

Assay [11] concerns Alexander cells. The note with it: 144 h, liver cancer cell line, 6 days. In outline:
as §1

Assay [12] concerns HUH7. As to conditions: Homo sapiens, Huh-7, 144 h; HUH7 liver cancer cell line; 6 days. Put shortly: as §1
For assay [13], the system named is NCl-H526. The note with it: 144 h; NCl-H526 tumor cell line; 6 days. In outline: as §1
Assay [14] has as its system SNU354. The note with it: Homo sapiens, SNU-354, 144 h; SNU354 liver cancer cell line; 6 days. In outline: as §1
The test system of assay [15] is JHH1. As to conditions: 144 h; JHH1 liver cancer cell line; 6 days. Put shortly: as §1
The test system of assay [16] is JHH5. The note with it: 144 h; JHH5 liver cancer cell line; 6 days. In outline:
as §1

The test system of assay [17] is KM12. The note with it: Homo sapiens, 144 h; KM12 tumor cell line; 6 days. Put shortly:
as §1

The test system of assay [18] is TE-15. The note with it: Homo sapiens, 144 h; TE-15 tumor cell line; 6 days. Put shortly:
as §1

The test system of assay [19] is SNU475. The note with it: Homo sapiens, SNU-475, 144 h; SNU475 liver cancer cell line; 6 days. Put shortly: as §1
Assay [20] deals with MDA-MB-435S. The note with it: Homo sapiens, 144 h; MDA-MB-435S tumor cell line; 6 days. Put shortly: as §1
Assay [21] relates to HUH1. The note with it: Homo sapiens, HuH-1, 144 h; HUH1 liver cancer cell line; 6 days. Put shortly:
as §1

For assay [22], the system named is T.T. As to conditions: Homo sapiens, TT, 144 h; T.T tumor cell line; 6 days. Put shortly:
as §1

The subject of assay [23] is HT55. As to conditions: Homo sapiens, 144 h; HT55 tumor cell line; 6 days. Put shortly:
as §1

The subject of assay [24] is SNU886. As to conditions: SNU-886, 144 h; SNU886 liver cancer cell line; 6 days. In outline: as §1

One may read the IC50 as the concentration at which inhibition is half-maximal.

Regarding `Cc1ccc(F)c(NC(=O)Nc2ccc(-c3cccc4c3c(N)nn4C(=O)C[C@H](N)C(=O)N[C@@H](CCC(=O)N[C@@H](CCC(=O)N[C@@H](CCC(=O)N[C@@H](CCC(=O)N[C@@H](CCC(=O)N[C@@H](CCC(=O)N[C@@H](CCC(=O)N[C@@H](CCC(=O)N[C@@H](CCC(=O)O)C(=O)O)C(=O)O)C(=O)O)C(=O)O)C(=O)O)C(=O)O)C(=O)O)C(=O)O)C(=O)O)cc2)c1` [Compound 3], the IC50 in assay [1] is 5.69 µM; in [2], 10.3 µM; in assay [3], 16.9 µM; in assay [4], 21.1 µM; in assay [5] it was 12.1 µM; in assay [6] it was 7.89 µM. Besides, the IC50 was 7.51 µM in [7]; 26.1 µM in assay [8]; 6.09 µM in assay [9]; 21.9 µM in assay [10]; 12.7 µM in assay [11]; 6.69 µM in assay [12]. Further, the IC50 was determined as 11.3 µM in assay [13]; 16.8 µM in assay [14]; 14.9 µM in [15]; 31 µM in [16]; 4.63 µM in assay [17]; 12.7 µM in assay [18]. The IC50 in [19] worked out at 9.62 µM; in assay [20], 46.4 µM; in assay [21] it was 7.93 µM; in assay [22], 19.8 µM; in assay [23] it was 31.3 µM; in assay [24] it was 9.06 µM.

Values taken from patent US11351151B2, “Compound having anticancer activity and preparation method and application” (3D Medicines (Beijing) Co., Ltd., priority 2016, dated 2022).
